Data on three compounds can be found in patent US5288723A, “A composition and a method of using veratridine and epinephrine as a local anesthetic” (priority 1991, dated 1994).

“Also recorded” adds a separate entry of the source.

A short description of data set [1]: Toxic signs (salivation) in rats after sciatic nerve injection. It counts as in vivo, Male Sprague-Dawley rats. Particulars: co-injection of VTD with EPI. As to the method: Male Sprague-Dawley rats (200-250 g) were divided into 4 groups of 10 each. 0.1 ml of VTD alone at 0.2, 0.5 or 0.7 mM or vehicle (saline) was injected at the depression between the femoral head and the hip. The same animals were injected with VTD with epinephrine (EPI, 1:200,000) one week later, using the previously uninjected leg. Motor and sensory functions were rated by the respective monitoring of toe curling and/or foot dragging, and by testing the nocifensive withdrawal reflex to pinch of the foot pad of the injected hindlimb. Saline alone affected neither function.

For data set [2], the system named is rat sciatic nerve. In words: Motor block of rat sciatic nerve in vivo (toe curling and/or foot dragging). Also noted: species or system Male Sprague-Dawley rats.
The test system of data set [3] is rat sciatic nerve. In words: Sensory block of rat sciatic nerve in vivo (nocifensive withdrawal reflex to pinch of the foot pad). Particulars: 2%=74 mM. Set-up: species or system Male Sprague-Dawley rats.

Consider `CNC[C@H](O)c1ccc(O)c(O)c1` [EPI, epinephrine], for which, in data set [1], the “Effect of EPI co-injection on VTD toxicity” value is “decrease VTD-associated toxicity; also recorded: decreases the toxicity associated with higher concentrations of VTD”.

As to `CCCCN1CCCCC1C(=O)Nc1c(C)cccc1C` (stereo not shown) [bupivacaine], in the data set on rat sciatic nerve [2] (0.75%=23 mM), the Motor blockade duration came out at 161 min; the Motor blockade onset was 4.8 min; the “Motor blockade, % of rats tested” value is recorded as 86%; the “Motor blockade, fraction of rats tested” value is listed as 205/239.

In the case of `CCN(CC)CC(=O)Nc1c(C)cccc1C` [lidocaine], in the data set with rat sciatic nerve [2] (2%=74 mM), the Motor blockade duration was determined as 75 min; the Motor blockade onset was 1.9 min; the “Motor blockade, % of rats” value came to 96%; the “Motor blockade, fraction of rats” value is given as 216/224. Also, in the data set on rat sciatic nerve [3], the Sensory blockade duration is 78 min; the Sensory blockade onset was 1.3 min; the “Sensory blockade, % of rats” value worked out at 100%; the “Sensory blockade, fraction of rats” value is listed as 5/5.
